Molecular target: T1, WT OleD (Streptomyces antibioticus, UniProt Q53685, P55A/R82V/R83E/T84P)
T1 construct: made in house; host or cells: E. coli BL21(DE3)pLysS, plasmid pET28/OleD
Type: biochemical
Conditions: named substrate varied, other substrate fixed at 5 mM
Method: Determination of kinetic parameters. Enzyme assays were carried out in a total volume of 100 μl 50 mM Tris-HCl (pH 8.0) containing 5 mM MgCl2, and typically 10-50 μg pure enzyme. Kinetic parameters kcat and Km were determined with both (FIG. 9: 1) and (FIG. 12: 5) as variable substrates. […] Each experiment was performed in triplicate. Aliquots ([…]) were removed between 0 and 30 min, at which time product formation was still linear with respect to time, and quenched with 100 μl of ice-cold MeOH, and centrifuged at 10,000 g for 10 min. Supernatants were analyzed by analytical reverse-phase HPLC as described above. The substrate (FIG. 9: 1) and the glucoside product (FIG. 9: 7) HPLC peak areas were integrated, and the product concentration calculated as a percent of the total peak area. Initial velocities were fitted to the Michaelis-Menten equation using Sigma Plot.

T1 sequence (Q53685 other isoform, or with tags, fused parts or gaps P55A/R82V/R83E/T84P): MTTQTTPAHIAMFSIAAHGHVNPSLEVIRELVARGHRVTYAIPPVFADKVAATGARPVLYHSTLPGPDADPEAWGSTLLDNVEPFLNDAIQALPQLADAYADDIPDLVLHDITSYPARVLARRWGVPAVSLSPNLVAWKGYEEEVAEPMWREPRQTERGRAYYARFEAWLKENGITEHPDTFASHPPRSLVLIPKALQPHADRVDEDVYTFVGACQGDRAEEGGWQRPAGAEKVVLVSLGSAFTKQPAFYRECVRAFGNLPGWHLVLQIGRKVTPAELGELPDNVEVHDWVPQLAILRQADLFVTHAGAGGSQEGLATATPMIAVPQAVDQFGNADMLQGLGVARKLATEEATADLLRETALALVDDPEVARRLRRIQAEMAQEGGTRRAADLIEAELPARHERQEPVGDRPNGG

## CC(C)=CCc1cc(C(=O)Nc2c(O)c3ccc(O)c(C)c3oc2=O)ccc1O [novobiocic acid (29), novobiocic acid]
  Km: 2000 µM
  kcat: 0.000683 s⁻¹

— US8093028B2, “Engineered glycosyltransferases with expanded substrate specificity” (Wisconsin Alumni Research Foundation, priority 2007, dated 2012)
